What is called IC50 is the concentration at which inhibition is half-maximal. In general, melting point refers to the temperature, or range, at which the solid turns liquid.

Series [1] has as its system IN. Further details: method as in PMID 15634005. To be noted: cited from earlier work.
Series [2] has as its target T1, HIV-1 IN (Human immunodeficiency virus type 1 group M subtype B, UniProt P12497).
T1 construct: pre-incubated with purified recombinant IN (at a final concentration of 200 nM); made in house
Description: In vitro IN inhibition assay (3’-processing and strand transfer). It counts as biochemical. Put shortly: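 Recombinant HIV-1 IN (200 nM) preincubated with compound 30 min at 30 °C in MnCl2-containing buffer (MgCl2 plus PEG for Mg2+ format), then 1 h with 20 nM 5'-32P-labeled 21-mer duplex. 3'-processing and strand-transfer products resolved on denaturing gels, phosphorimager-quantified; IC50 from log-concentration versus % inhibition.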

In series [3] the target is T2, human apurinic/apyrimidinic endonuclease 1 (APE1) (Homo sapiens, UniProt P27695).
T2 construct: His; made in house
Kind of series: APE1 inhibition assay. It counts as biochemical. Conditions: for IC50: read-out: Inhibition of APE1 catalytic activity IC50; for APE1 inhibition (in words): at 100 μM. An outline of the steps:
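His-tagged APE1 (0.05 nM) preincubated with compound 10 min at 30 °C in MOPS pH 7.2 buffer with 7.5 mM MnCl2 and 10% DMSO, then 200 nM 5′-32P-labelled abasic (THF) duplex added for 10 min. Incision products resolved on denaturing gel, phosphorimaged; IC50 from %I versus log concentration.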

Series [4] deals with HIV-1. Description: MT-4 cell infectivity assay. It is filed as cell-based. To be noted: MT-4 cells.
Where [5] appears, read: Mn2+ cofactor (7.5 mM MnCl2), read-out: Inhibition of IN catalytic activity IC50, 3’-Processing.
[6] abbreviates: Mn2+ cofactor (7.5 mM MnCl2), read-out: Inhibition of IN catalytic activity IC50, Strand Transfer.

Like-named read-outs stand apart in the source and are kept apart here. Where only a bound is given, the exact number is not on record here.

T2 sequence (P27695 whole entry): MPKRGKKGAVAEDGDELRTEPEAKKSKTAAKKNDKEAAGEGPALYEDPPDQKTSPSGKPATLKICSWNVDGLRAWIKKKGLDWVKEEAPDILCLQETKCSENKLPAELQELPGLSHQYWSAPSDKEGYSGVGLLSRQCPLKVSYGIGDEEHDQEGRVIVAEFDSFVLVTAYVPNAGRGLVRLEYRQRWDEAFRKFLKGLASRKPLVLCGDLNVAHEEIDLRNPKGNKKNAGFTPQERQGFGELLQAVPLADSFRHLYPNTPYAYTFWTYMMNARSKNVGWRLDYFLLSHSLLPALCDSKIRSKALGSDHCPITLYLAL

For the compound `O=C(O)c1ccc(N2C(=O)/C(=C/c3ccccc3)SC2=S)cc1` [Compound 1], the IC50 in series [1] (read-out: IC50, 3’-processing) is 15 µM; in series [1] (read-out: IC50, strand transfer), 11 µM.
`O=C(Nc1ccc(O)cc1)C(=S)NN1C(=O)C(=Cc2cc([N+](=O)[O-])ccc2O)SC1=S` [Compound 44, 2-{[5-(2-Hydroxy-5-nitrobenzylidene)-4-oxo-2-thioxo-1,3-thiazolidin-3-yl]amino}-N-(4-hydroxy-phenyl)-2-thioxoacetamide] gave a melting point of 199 to 200 °C. Besides, the IC50 in series [2] (setting [5]) is 53 ± 8 µM. Moreover, the IC50 in series [2] (setting [6]) came out at 45 ± 14 µM. The IC50 in series [3] is above 100 µM.
Turning to `CCOc1cccc(C=C2SC(=S)N(NC(=S)C(=O)Nc3ccc(O)cc3)C2=O)c1O` [Compound 45, 2-{[5-(3-Ethoxy-2-hydroxybenzylidene)-4-oxo-2-thioxo-1,3-thiazolidin-3-yl]amino}-N-(4-hydroxyphenyl)-2-thioxoacetamide], the melting point was 184 to 185 °C. The IC50 in series [2] (setting [5]) was above 100 µM. In series [2] (setting [6]), the half-maximal inhibitory concentration (IC50) is above 100 µM. For the same compound, in series [3], the IC50 was above 100 µM.
`C=CCc1cccc(C=C2SC(=S)N(NC(=S)C(=O)Nc3ccc(O)cc3)C2=O)c1O` [Compound 46, 2-{[5-(3-Allyl-2-hydroxybenzylidene)-4-oxo-2-thioxo-1,3-thiazolidin-3-yl]amino}-N-(4-hydroxy-phenyl)-2-thioxoacetamide] registered a melting point of 153 to 154 °C. In addition, the IC50 in series [2] (setting [5]) was above 100 µM. Further, in series [2] (setting [6]), the IC50 is 100 µM. Also, in series [3], the IC50 is above 100 µM.
As for `CCN(CC)c1ccc(C=C2SC(=S)N(NC(=S)C(=O)Nc3ccc(O)cc3)C2=O)c(O)c1` [Compound 47, 2-({5-[4-(Diethylamino)-2-hydroxybenzylidene]-4-oxo-2-thioxo-1,3-thiazolidin-3-yl}amino)-N-(4-hydroxyphenyl)-2-thioxoacetamide], the melting point lay within 206 to 207 °C. Besides, in series [2] (setting [5]), the IC50 was above 100 µM. Moreover, in series [2] (setting [6]), the IC50 was above 100 µM. For the same compound, the IC50 in series [3] is above 100 µM.
In the case of `O=C(Nc1ccc(O)cc1)C(=S)NN1C(=O)C(=Cc2cc(N=Nc3ccccc3)ccc2O)SC1=S` [Compound 48, N-(4-hydroxyphenyl)-2-[(5-{2-hydroxy-5-[(E)-phenyldiazenyl]benzylidene}-4-oxo-2-thioxo-1,3-thiaz-olidin-3-yl)amino]-2-thioxoacetamide], the melting point was 145 to 146 °C. The IC50 in series [2] (setting [5]) came to 17 ± 7 µM. Besides, the IC50 in series [2] (setting [6]) turned out to be 8 ± 2 µM. In addition, the “antiviral activity against HIV-1” value in series [4] is given as “did not show any significant antiviral activity”. In addition, in series [3], the “APE1 inhibition (in words)” value is “did not show any significant APE1 inhibition” and the IC50 was above 100 µM.
Consider `O=C(Nc1ccc(O)cc1)C(=S)NN1C(=O)C(=Cc2ccc(O)c(C(=O)O)c2)SC1=S` [Compound 49, 2-Hydroxy-5-{[3-({2-[(4-hydroxyphenyl)amino]-2-oxoethanethioyl}amino)-4-oxo-2-thioxo-1,3-thiazolidin-5-ylidene]methyl}benzoic acid], for which the melting point fell in the range of 223 to 224 °C. Moreover, the IC50 in series [2] (setting [5]) was determined as 80 µM. Further, the IC50 in series [2] (setting [6]) worked out at 45 µM. Also, the IC50 in series [3] is above 100 µM.
For `O=C(Nc1ccc(O)cc1)C(=S)NN1C(=O)C(=Cc2cc(Cl)cc(Cl)c2O)SC1=S` [Compound 50, 2-{[5-(3,5-Dichloro-2-hydroxybenzylidene)-4-oxo-2-thioxo-1,3-thiazolidin-3-yl]amino}-N-(4-hydroxy-phenyl)-2-thioxoacetamide] the same measures were 217 to 218 °C, 60 µM, 55 µM and above 100 µM.
Take `O=C(Nc1ccc(O)cc1)C(=S)NN1C(=O)C(=Cc2cc(Br)cc(Br)c2O)SC1=S` [Compound 51, 2-{[5-(3,5-Dibromo-2-hydroxybenzylidene)-4-oxo-2-thioxo-1,3-thiazolidin-3-yl]amino}-N-(4-hydroxy-phenyl)-2-thioxoacetamide]: the melting point is 189 to 190 °C. Moreover, the IC50 in series [2] (setting [5]) was determined as 28 ± 1 µM. For the same compound, in series [2] (setting [6]), the IC50 stood at 21 ± 7 µM. Also, the “antiviral activity against HIV-1” value in series [4] is “did not show any significant antiviral activity”. Further, in series [3], the “APE1 inhibition (in words)” value is listed as “did not show any significant APE1 inhibition” and the IC50 is above 100 µM.
`COc1cc(Br)cc(C=C2SC(=S)N(NC(=S)C(=O)Nc3ccc(O)cc3)C2=O)c1O` [Compound 52, 2-{[5-(5-Bromo-2-hydroxy-3-methoxybenzylidene)-4-oxo-2-thioxo-1,3-thiazolidin-3-yl]amino}-N-(4-hydroxyphenyl)-2-thioxoacetamide] had a melting point of 176 to 177 °C. Further, in series [2] (setting [5]), the IC50 came to 38 ± 27 µM. The IC50 in series [2] (setting [6]) stood at 23 ± 9 µM. The IC50 in series [3] was above 100 µM.
As for `O=C(Nc1ccc(O)cc1)C(=S)NN1C(=O)C(=Cc2cc(I)cc(I)c2O)SC1=S` [Compound 53, 2-{[5-(2-Hydroxy-3,5-diiodobenzylidene)-4-oxo-2-thioxo-1,3-thiazolidin-3-yl]amino}-N-(4-hydroxy-phenyl)-2-thioxoacetamide], the melting point is 157 to 158 °C. Moreover, the “selectivity for IN than APE1” value in series [2] (IN versus APE1) is reported as 20 fold. Moreover, in series [2] (setting [5]), the IC50 was found to be 7 ± 3 µM. The IC50 in series [2] (setting [6]) is 3 ± 2 µM. Also, the IC50 in series [2] (in the presence of Mg^2+ as the cofactor, read-out: Inhibition of IN catalytic activity IC50, 3’-Processing, Mg2+ (converted)) is 12.5 µM. In series [2] (in the presence of Mg^2+ as the cofactor, read-out: Inhibition of IN catalytic activity IC50, Strand Transfer, Mg2+ (converted)), the IC50 was 11 µM. The “antiviral activity against HIV-1” value in series [4] is on record as “did not show any significant antiviral activity”. Further, the IC50 in series [3] stood at 62 ± 3 µM.

The values above are taken from article PMC6264390, “Design, Synthesis and Structure-activity Studies of Rhodanine Derivatives as HIV-1 Integrase Inhibitors” (Molecules, 2010).
